From patent publication US20120088664A1, “Antifungal 1,2,4-triazolyl derivatives having a 5-sulfur subtituent” (BASF SE, priority 2009, published 2012) come the findings set out here.

Each structure is given as a SMILES string.

One data set concerns Phytophthora infestans. In kind it is in vivo. As to conditions: 300 ppm active compound, tomato plants sprayed to run-off, inoculated next day, assessed after 6 days; untreated plants 90% infected.
The next data set has as its system Botrytis cinerea. Description: Preventative control of grey mold (Botrytis cinerea) on leaves of green pepper (greenhouse test). In kind it is in vivo. As to conditions: 300 ppm active compound, green pepper seedlings sprayed to run-off, inoculated next day, assessed after 5 days; untreated plants 90% infected.

`CC(C)(C)C(O)(CCc1ccc(Cl)cc1Cl)Cn1nc[nH]c1=S` (stereo not shown) [Example 1, 1-(2-(2,4-dichlorophenethyl)-2-hydroxy-3,3-dimethylbutyl)-1H-1,2,4-triazole-5(4H)-thione]: the “infection (fungal attack on the leaves visually assessed as % diseased leaf area)” value with Phytophthora infestans was determined as 15%. For `CC(C)(C)C(O)(CCc1ccc(F)cc1F)Cn1nc[nH]c1=S` (stereo not shown) [Example 2, 1-(2-(2,4-Difluorophenethyl)-2-hydroxy-3,3-dimethylbutyl)-1H-1,2,4-triazole-5(4H)-thione], the melting point – broadly, the temperature of the solid-liquid transition – is 130 to 132 °C. `CC(C)(C)C(O)(CCc1ccc(Cl)c(Cl)c1)Cn1nc[nH]c1=S` (stereo not shown) [Example 3, 1-(2-(3,4-Dichlorophenethyl)-2-hydroxy-3,3-dimethylbutyl)-1H-1,2,4-triazole-5(4H)-thione]: the melting point was 155 to 157 °C. `CC(C)(C)C(O)(CCc1ccc(F)cc1)Cn1nc[nH]c1=S` (stereo not shown) [Example 4, 1-(2-(4-Fluorophenethyl)-2-hydroxy-3,3-dimethylbutyl)-1H-1,2,4-triazole-5(4H)-thione] displayed a melting point of 134 to 135 °C. In addition, the “infection (fungal attack on the leaves visually assessed as % diseased leaf area)” value in the data set with Botrytis cinerea came out at 7%. For `Cc1ccc(CCC(O)(Cn2nc[nH]c2=S)C(C)(C)C)cc1` (stereo not shown) [Example 5, 1-(2-hydroxy-3,3-dimethyl-2-(4-methylphenethyl)butyl)-1H-1,2,4-triazole-5(4H)-thione], the melting point lay within 137 to 138 °C. As for `CC(C)(C)C(O)(CCc1ccc(C(F)(F)F)cc1)Cn1nc[nH]c1=S` (stereo not shown) [Example 6, 1-(2-Hydroxy-3,3-dimethyl-2-(4-(trifluoromethyl)phenethyl)butyl)-1H-1,2,4-triazole-5(4H)-thione], the melting point lay in the range of 139 to 140 °C.
